Structures can show the parent of a compound that is named as a salt.
Biological target: T1, G288S mutant KCNT1 channels (Homo sapiens, UniProt Q5JUK3, G269S)
T1 construct: YFP-6His; expressed in transfected cells; host or cells: HEK293T
T1 sequence (Q5JUK3 1-1235 isoform Q5JUK3-3 G288S): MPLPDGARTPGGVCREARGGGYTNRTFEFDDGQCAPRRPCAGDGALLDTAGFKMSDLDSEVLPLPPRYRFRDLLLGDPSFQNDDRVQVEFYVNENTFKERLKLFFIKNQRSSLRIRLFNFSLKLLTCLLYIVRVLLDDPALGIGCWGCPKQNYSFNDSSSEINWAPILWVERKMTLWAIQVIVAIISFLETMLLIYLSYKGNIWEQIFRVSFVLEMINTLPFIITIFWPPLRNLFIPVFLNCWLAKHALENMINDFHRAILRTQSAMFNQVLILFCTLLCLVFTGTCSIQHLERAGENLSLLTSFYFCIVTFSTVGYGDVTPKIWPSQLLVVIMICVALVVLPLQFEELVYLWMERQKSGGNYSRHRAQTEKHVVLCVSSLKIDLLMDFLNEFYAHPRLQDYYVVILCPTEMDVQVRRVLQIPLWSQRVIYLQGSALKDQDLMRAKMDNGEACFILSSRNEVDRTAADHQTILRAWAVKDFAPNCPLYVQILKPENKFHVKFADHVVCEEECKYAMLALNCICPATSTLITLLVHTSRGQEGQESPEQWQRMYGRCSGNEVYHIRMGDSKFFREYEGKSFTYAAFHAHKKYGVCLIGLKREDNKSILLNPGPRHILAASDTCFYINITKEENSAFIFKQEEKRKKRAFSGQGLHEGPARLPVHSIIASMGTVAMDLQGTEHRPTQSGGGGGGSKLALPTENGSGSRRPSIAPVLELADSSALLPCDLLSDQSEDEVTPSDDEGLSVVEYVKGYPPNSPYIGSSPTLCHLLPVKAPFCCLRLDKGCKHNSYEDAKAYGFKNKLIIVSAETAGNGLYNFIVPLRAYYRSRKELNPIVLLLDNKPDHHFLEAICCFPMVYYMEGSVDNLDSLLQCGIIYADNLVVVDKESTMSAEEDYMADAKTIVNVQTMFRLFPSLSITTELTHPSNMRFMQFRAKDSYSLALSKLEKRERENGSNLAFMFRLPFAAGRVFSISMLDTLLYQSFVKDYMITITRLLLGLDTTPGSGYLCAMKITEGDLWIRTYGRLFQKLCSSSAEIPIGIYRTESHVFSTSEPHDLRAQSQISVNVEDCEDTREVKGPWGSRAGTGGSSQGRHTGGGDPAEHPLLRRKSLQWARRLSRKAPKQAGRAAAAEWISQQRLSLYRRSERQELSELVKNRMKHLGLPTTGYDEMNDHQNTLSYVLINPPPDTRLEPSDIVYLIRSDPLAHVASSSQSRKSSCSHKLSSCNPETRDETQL
Assay: Inside-out patch clamp of HEK293T cells expressing G288S KCNT1
Format: cell-based
Conditions: inside-out patches, mean ± SEM
Procedure: The CHO cells were cultured in Dulbecco's modified Eagle's Medium (ThermoFisher, UK) supplemented with 10% (v/v) fetal bovine serum, 50 U/ml penicillin and 0.05 mg/ml streptomycin, and incubated at 37°C in 5% CO2 atmosphere. For whole cell recording of WT/Y796H KCNT1, CHO cells were transiently co‐transfected with concatemeric WT/Y796H and EYFP, as described previously.[29] For electrophysiological experiments, cells were plated onto borosilicate glass cover slips and used 2 to 4 days later. Human embryonic kidney 293T cells (HEK293T) were cultured in the same manner, but with medium supplemented with 2 mM L‐glutamine, and 1% (v/v) nonessential amino acids. For excised inside‐out recording of homomeric WT or mutant YFP‐tagged KCNT1, HEK293T cells plated on glass cover slips were transfected using Attractene Transfection Reagent (Qiagen, Germany) according to the manufacturer's instructions and used 2 to 3 days later.
Inside‐out patch clamp recordings were made at room temperature (23°C) from transiently transfected HEK293T cells, as described previously.[11] The pipette solution contained, in mM, 140 NaCl, 4 KCl, 2 CaCl2, 2 MgCl2, and 10 HEPES adjusted to pH 7.4 with NaOH. […] KCNT1 currents were recorded using 2 voltage protocols, depending on the number of active channels in the patch before drug application. Macroscopic currents (number of active channels > 15) were recorded in response to 100 ms voltage ramps between −120 and 120 mV applied every 2 seconds from a holding potential of −78 mV. […] With a lower number of active channels in the patch (3–15), current traces were recorded in response to 15‐second voltage steps to −20, 0, and 20 mV from a holding potential of −78 mV. Currents recorded at each voltage and each drug concentration were averaged over the duration of the trace and normalized to the average amplitudes of the corresponding current traces in drug‐free solution. […] Single channel data were analyzed using Ana software developed by Dr Michael Pusch (Istituto di Biofisica, Genova, Italy; http://users.ge.ibf.cnr.it/pusch/programs-mik.htm). […]

## O=C(OCCN1CCN(c2cccc(C(F)(F)F)c2)CC1)c1ccccc1Nc1ccnc2cc(C(F)(F)F)ccc12 [antrafenine]
  IC50: 13.3 ± 3.7 nM

## CC(C)c1c(C(=O)Nc2ccccc2)c(-c2ccccc2)c(-c2ccc(F)cc2)n1CC[C@@H](O)C[C@@H](O)CC(=O)O [atorvastatin]
  IC50: 2600 ± 1600 nM

## Cc1c(O)cccc1C(=O)N[C@@H](CSc1ccccc1)[C@H](O)CN1C[C@H]2CCCC[C@H]2C[C@H]1C(=O)NC(C)(C)C [nelfinavir mesylate]
  IC50: 9.5 ± 1.8 nM

— paper PMC12682947, “Identification of New KCNT1‐Epilepsy Drugs by In Silico, Cell, and Drosophila Modeling” (Annals of Neurology, 2025)
